Source: patent US4409210A, “Antibiotic compound” (priority 1982, dated 1983)
Values after ≈ are worked out from the molar mass of the structure shown.

Columns and labels:
[1] = tested on: Bacillus anthracis IID-115; experiment: microbe, parasite or virus in culture; type: cell-based; settings: Bacillus anthracis, IID115, read-out: minimum inhibitory concentration (MIC)
[2] = tested on: Propionibacterium acnes A21933; experiment: MIC, serial two-fold dilution method (anaerobic); type: cell-based; settings: Cutibacterium acnes; Propionibacterium acnes A21933; GAM agar medium; inoculum 10^7-10^8; read-out: minimum inhibitory concentration (MIC)
[3] = tested on: Strain G393-B445; experiment: Antibiotic sensitivity, paper disc-agar diffusion method; type: cell-based, Empedobacter sp.; design: key: S (sensitive); R (resistant); I (intermediate); settings: nutrient agar, 2 day's incubation at 28° C., Difco discs, amount/disc per antibiotic
[4] = tested on: Staphylococcus aureus Smith; experiment: MIC, serial two-fold dilution method (aerobic); type: cell-based; settings: Staphylococcus aureus Smith; Mueller-Hinton agar; inoculum 10^4; read-out: minimum inhibitory concentration (MIC)
[5] = tested on: Fusobacterium necrophorum A20013; experiment: MIC, serial two-fold dilution method (anaerobic); type: cell-based; settings: Fusobacterium necrophorum A20013; GAM agar medium; inoculum 10^7-10^8; read-out: minimum inhibitory concentration (MIC)
[6] = tested on: E. coli NIHJ; experiment: Antibiotic sensitivity, paper disc-agar diffusion method; type: cell-based; design: key: S (sensitive); R (resistant); I (intermediate); settings: nutrient agar, 2 day's incubation at 28° C., Difco discs, amount/disc per antibiotic
[7] = tested on: Peptostreptococcus anaerobius A21905; experiment: MIC, serial two-fold dilution method (anaerobic); type: cell-based; settings: Peptostreptococcus anaerobius A21905; GAM agar medium; inoculum 10^7-10^8; read-out: minimum inhibitory concentration (MIC)
[8] = tested on: Clostridium acidiurici A9560; experiment: MIC, serial two-fold dilution method (anaerobic); type: cell-based; settings: Gottschalkia acidurici; Clostridium acidiurici A9560; GAM agar medium; inoculum 10^7-10^8; read-out: minimum inhibitory concentration (MIC)
[9] = tested on: Bacteroides fragilis A20929; experiment: MIC, serial two-fold dilution method (anaerobic); type: cell-based; settings: Bacteroides fragilis A20929; GAM agar medium; inoculum 10^7-10^8; read-out: minimum inhibitory concentration (MIC)
[10] = tested on: Propionibacterium acnes A22650; experiment: MIC, serial two-fold dilution method (anaerobic); type: cell-based; settings: Cutibacterium acnes; Propionibacterium acnes A22650; GAM agar medium; inoculum 10^7-10^8; read-out: minimum inhibitory concentration (MIC)
[11] = tested on: Staphylococcus aureus A20610; experiment: MIC, serial two-fold dilution method (aerobic); type: cell-based; settings: Staphylococcus aureus A20610; Mueller-Hinton agar; inoculum 10^4; read-out: minimum inhibitory concentration (MIC)
[12] = tested on: Pseudomonas aeruginosa D-113; experiment: MIC, serial two-fold dilution method (aerobic); type: cell-based; settings: D113; Pseudomonas aeruginosa D-113; Mueller-Hinton agar; inoculum 10^4; read-out: minimum inhibitory concentration (MIC)
[13] = tested on: Staphylococcus aureus A9601; experiment: MIC, serial two-fold dilution method (aerobic); type: cell-based; settings: Staphylococcus aureus A9601; Mueller-Hinton agar; inoculum 10^4; read-out: minimum inhibitory concentration (MIC)
[14] = tested on: Staphylococcus aureus 209P; experiment: MIC, serial two-fold dilution method (aerobic); type: cell-based; settings: Staphylococcus aureus 209P; Mueller-Hinton agar; inoculum 10^4; read-out: minimum inhibitory concentration (MIC)
[15] = tested on: Bacteroides fragilis A20928-1; experiment: MIC, serial two-fold dilution method (anaerobic); type: cell-based; settings: A209281; Bacteroides fragilis A20928-1; GAM agar medium; inoculum 10^7-10^8; read-out: minimum inhibitory concentration (MIC)
[16] = tested on: Bacteroides ovatus A22400; experiment: MIC, serial two-fold dilution method (anaerobic); type: cell-based; settings: Bacteroides ovatus A22400; GAM agar medium; inoculum 10^7-10^8; read-out: minimum inhibitory concentration (MIC)
[17] = tested on: Micrococcus flavus D-12; experiment: MIC, serial two-fold dilution method (aerobic); type: cell-based; settings: D12; Micrococcus flavus D-12; Mueller-Hinton agar; inoculum 10^4; read-out: minimum inhibitory concentration (MIC)
[18] = tested on: Neisseria gonorrhoeae A15112; experiment: MIC, serial two-fold dilution method (aerobic); type: cell-based; settings: Neisseria gonorrhoeae A15112; GC medium; inoculum 10^6 CFU/ml; read-out: minimum inhibitory concentration (MIC)
[19] = tested on: Peptostreptococcus intermedius A21881; experiment: MIC, serial two-fold dilution method (anaerobic); type: cell-based; settings: Peptostreptococcus intermedius A21881; GAM agar medium; inoculum 10^7-10^8; read-out: minimum inhibitory concentration (MIC)
[20] = tested on: Staphylococcus aureus A20239; experiment: MIC, serial two-fold dilution method (aerobic); type: cell-based; settings: Staphylococcus aureus A20239; Mueller-Hinton agar; inoculum 10^4; read-out: minimum inhibitory concentration (MIC)
[21] = tested on: S. aureus 209P; experiment: Antibiotic sensitivity, paper disc-agar diffusion method; type: cell-based; design: key: S (sensitive); R (resistant); I (intermediate); settings: nutrient agar, 2 day's incubation at 28° C., Difco discs, amount/disc per antibiotic
[22] = tested on: Klebsiella pneumoniae D-11; experiment: MIC, serial two-fold dilution method (aerobic); type: cell-based; settings: D11; Klebsiella pneumoniae D-11; Mueller-Hinton agar; inoculum 10^4; read-out: minimum inhibitory concentration (MIC)
[23] = tested on: Clostridium cylindrosporum A9562; experiment: MIC, serial two-fold dilution method (anaerobic); type: cell-based; settings: Clostridium cylindrosporum A9562; GAM agar medium; inoculum 10^7-10^8; read-out: minimum inhibitory concentration (MIC)
[24] = tested on: Escherichia coli NIHJ; experiment: MIC, serial two-fold dilution method (aerobic); type: cell-based; settings: Escherichia coli NIHJ; Mueller-Hinton agar; inoculum 10^4; read-out: minimum inhibitory concentration (MIC)
[25] = tested on: Propionibacterium acnes A21953; experiment: MIC, serial two-fold dilution method (anaerobic); type: cell-based; settings: Cutibacterium acnes; Propionibacterium acnes A21953; GAM agar medium; inoculum 10^7-10^8; read-out: minimum inhibitory concentration (MIC)
[26] = tested on: Staphylococcus aureus A20701; experiment: MIC, serial two-fold dilution method (aerobic); type: cell-based; settings: Staphylococcus aureus A20701; Mueller-Hinton agar; inoculum 10^4; read-out: minimum inhibitory concentration (MIC)
[27] = tested on: Staphylococcus aureus A20394; experiment: MIC, serial two-fold dilution method (aerobic); type: cell-based; settings: Staphylococcus aureus A20394; Mueller-Hinton agar; inoculum 10^4; read-out: minimum inhibitory concentration (MIC)
[28] = tested on: Bacteroides fragilis A22533; experiment: MIC, serial two-fold dilution method (anaerobic); type: cell-based; settings: Bacteroides fragilis A22533; GAM agar medium; inoculum 10^7-10^8; read-out: minimum inhibitory concentration (MIC)
[29] = tested on: Bacteroides fragilis CUH-24; experiment: MIC, serial two-fold dilution method (anaerobic); type: cell-based; settings: CUH24; Bacteroides fragilis CUH-24; GAM agar medium; inoculum 10^7-10^8; read-out: minimum inhibitory concentration (MIC)

CC1(C)S[C@@H]2[C@H](NC(=O)[C@H](N)c3ccccc3)C(=O)N2[C@H]1C(=O)O [Ampicillin]
MIC [1]: 0.013 µg/mL (≈ 0.0372 µM) | MIC [2]: 0.2 µg/mL (≈ 0.572 µM) | Sensitivity Strain G393-B445 [3]: S | MIC [4]: 0.05 µg/mL (≈ 0.143 µM) | MIC [5]: > 100 µg/mL | Sensitivity E. coli NIHJ [6]: S | MIC [7]: 0.1 µg/mL (≈ 0.286 µM) | MIC [8]: 0.8 µg/mL (≈ 2.29 µM) | MIC [9]: 0.8 µg/mL (≈ 2.29 µM) | MIC [10]: 0.05 µg/mL (≈ 0.143 µM) | MIC [11]: 12.5 µg/mL (≈ 35.8 µM) | MIC [12]: > 100 µg/mL | MIC [13]: 0.4 µg/mL (≈ 1.14 µM) | MIC [14]: 0.013 µg/mL (≈ 0.0372 µM) | MIC [15]: 0.2 µg/mL (≈ 0.572 µM) | MIC [16]: 25 µg/mL (≈ 71.5 µM) | MIC [17]: 0.1 µg/mL (≈ 0.286 µM) | MIC [18]: 0.4 µg/mL (≈ 1.14 µM) | MIC [19]: 0.1 µg/mL (≈ 0.286 µM) | MIC [20]: 1.6 µg/mL (≈ 4.58 µM) | Sensitivity S. aureus 209P [21]: S | MIC [22]: 0.8 µg/mL (≈ 2.29 µM) | MIC [23]: 0.8 µg/mL (≈ 2.29 µM) | MIC [24]: 0.4 µg/mL (≈ 1.14 µM) | MIC [25]: < 0.0063 µg/mL | MIC [26]: 25 µg/mL (≈ 71.5 µM) | MIC [27]: 3.1 µg/mL (≈ 8.87 µM) | MIC [28]: > 100 µg/mL | MIC [29]: 50 µg/mL (≈ 143 µM)
